Assay results from patent publication US11324746B2, “Use of anagrelide for treating cancer” (Arovella Therapeutics Limited, priority 2014, dated 2022).
Values after ≈ are worked out from the molar mass of the structure shown. Values joined by “and” are separate entries in the source; they are usually repeats but may differ in a detail not shown here. Equal values may be shown once. Read-outs that look alike come from different tables or passages of the source.

Legend:
[1] = cited from earlier work; for peak plasma levels: after a typical 1 mg clinical dose
PDE III = conditions: cited from earlier work; for IC50 inhibition of PDE III / IC50: in vitro; for IC50: read-out: IC50 inhibition of PDE III
VEGF = conditions: ET patients; HU 1.25 g/day, IFN-α 1.5×10^6 units/day, anagrelide 1.5 mg/day; cited from earlier work
PF4 = conditions: ET patients; HU 1.25 g/day, IFN-α 1.5×10^6 units/day, anagrelide 1.5 mg/day; cited from earlier work
cancer cells = conditions: mice; cited from earlier work
[2] = cited from earlier work
[3] = up to concentration of 1 μM; cited from earlier work
COV362 cells = experiment: Transmigration assay of COV362 cells towards MK cultures (modified Boyden chamber); assay type: cell-based, human
Description: Transmigration assay—Transmigration of human ovarian cancer cells, COV362 cells (COVs), was examined in a well established model of cancer cell migration (Hart et al 2005) and Kramer et al 2013) which employed the modified Boyden chamber described above but using inserts with a larger 8μm pore PET membrane. […] In this case pre-expanded haematopoietic cells were grown for 7 days in MK medium in the wells of the companion plate prior to placement of the inserts. Inserts were then positioned inside these MK-containing wells or in parallel wells filled with and equivalent volume of MK medium alone. A suspension of 0.35 mL COVs cells made in plasma-free MK medium at a density of 2.86×10^5cells/ml was then loaded onto the inserts and allowed to trans-migrate through the PET membrane for up to 24 h at 37° C. in a tissue culture incubator. At various time points the transmigration assay was terminated by removing the insert from the well of the companion plate and aspirating its contents. After washing the inserts with phosphate-buffered saline (PBS) non-migrating cells attached to the upper side of the PET membrane were scraped off with cotton swabs soaked in PBS. […] Bright field digital photomicrographs were taken in five random fields at 100× magnification and the average number of cells per field was determined by manual counting.

[4] = tested on: megakaryocytes (MKs) from human umbilical cord blood-derived CD34+ haematopoietic cells; experiment: Co-culture of COV362 cells and developing megakaryocytes (MK expansion, CD61 flow cytometry); assay type: cell-based; conditions: anagrelide 1 μM
Description: Cells and drug treatment—Megakaryocytes (MKs) were generated ex-vivo essentially as previously described (Ahluwalia M et al 2010). In brief, to promote terminal megakaryocytic differentiation pre-expanded human umbilical cord blood-derived CD34^+ haematopoietic cells were cultured for 7 days in Stemspan™ SFEM II medium (Stem Cell Technologies) supplemented with 1% human umbilical cord blood plasma and 40 ng/ml thrombopoietin (TPO) unless otherwise indicated (MK medium). […]
The human ovarian cancer cell line COV362 was grown in Iscove's modified Dulbecco's medium (IMDM) supplemented with 2 mM glutamine and 10% foetal bovine serum (FBS). Cell cultures were maintained at 37° C. in a humidified incubator under 5% CO2/95% air.
Co-culture experiments—Co-culture of COV362 cells (COVs) and developing MKs was carried out in a modified Boyden Chamber (BD Falcon, BD Biosciences, Oxford, UK) consisting of a cup-shaped cell culture insert resting inside the well of a 24-well companion plate, with the bottom of the insert made of a permeable microporous polyethylene terephthalate (PET) membrane having a pore size of 0.4 μm.
In experiments examining the effects of COVs on MK development, COVs were seeded in the companion plate at various cells densities and grown for 4 days prior to mounting the inserts. Then, the medium in the companion plate was removed and replaced with fresh MK medium. Immediately thereafter the pre-expanded haematopoietic cells were seeded in the insert. After seven days of co-culture the cells growing in the inserts were harvested for analysis of MK development.
Analysis of megakaryocyte development—Cell density was determined using a Casy TT Cell counter (Innovatis, Germany) set with a lower cut-off limit of ˜7.5 μm. MK-specific antigen expression was monitored by flow cytometry using a fluorescein isothiocyanate-conjugated anti-CD61 antibody (clone Y2/51, Dako, Ely, UK) as previously described (Wang G et al 2005). The number of MKs was calculated by multiplying the total number of cells in the culture by the fraction of CD61 positive cells.

[5] = cited from earlier work; remark: listed apart in the source
megakaryocytes = conditions: cited from earlier work
[6] = tested on: various cancer cell lines; conditions: in vitro; WO2014/183673; read-out: IC50 apoptosis in cancer cell lines; cited from earlier work
[7] = Aqueous solubility of anagrelide; assay type: physicochemical
[8] = cited from earlier work; remark: listed apart in the source
[9] = cited from earlier work; remark: listed apart in the source
[10] = human, in vivo; cited from earlier work
ovarian cancer = conditions: mouse models of ovarian cancer; cited from earlier work

For `O=C1NC2=Nc3ccc(Cl)c(Cl)c3CN2C1O` (stereo not drawn) [3-hydroxy anagrelide], the peak plasma levels ([1]; listed as metabolite) is given as 29 nM and ~8 ng/mL, the “plasma concentrations of metabolite relative to parent drug” value ([1]; clinical practice, Martinez-Selles et al, 2013) is given as 2-3 fold and the “PDEIII inhibitory potency relative to anagrelide” value (PDE III; Wang et al, 2005) is given as about 40 fold. For the same compound, the “cardiostimulant potency relative to the parent drug” value (PDE III) was 40 fold, the “IC50 inhibition of PDE III” value (PDE III) was 0.2 ng/mL and the IC50 (PDE III) was 0.7 nM.

For `NC(=O)NO` [HU, hydroxyurea], the “VEGF levels after treatment” value (VEGF) is listed as “Neither HU nor IFα brought PF4 and VEGF down” and the “PF4 levels after treatment” value (PF4) is listed as “Neither HU nor IFα brought PF4 and VEGF down”.

For `O=C1CN2Cc3c(ccc(Cl)c3Cl)N=C2N1` [anagrelide], the “VEGF levels after treatment” value (VEGF) is listed as “reduced the PF4 and VEGF levels to normal”, the “circulation time of cancer cells” value (cancer cells) is listed as “increase in circulation time of cancer cells” and the “patients discontinuing drug treatment due to cardiovascular side-effects” value ([2]; Birgegard et al, 2004) is listed as about 25%. The “patients with idiopathic cardiomyopathy” value ([2]; of 434 patients with essential thrombocythaemia and polycythemia vera, Jurgens et al 2004) was 11, the apoptopic effects [3] was “no apoptopic effects” and the “attractant properties for COVs of MK cultures grown with drug” value (COV362 cells; anagrelide 1 μM, overnight incubation (FIG. 3)) was “no attractant properties”. The “attractant properties for COVs of MKs grown with drug” value (COV362 cells; clinically relevant concentrations, 16 h (FIG. 4)) was “loss of attractant properties”, the inhibition at 1 µM ([4]; Homo sapiens, 168 h, absence of COVs, 7 days, read-out: inhibition of thrombopoietin driven MK expansion) was about 50% and the “stimulatory effects of COVs on MK expansion” value ([4]; COVs seeded at 1000cells/mL) was “completely abolished”. The “expected increase in MK expansion with COVs” value ([4]; COVs seeded at 3000cells/mL) was “more than halved”, the aqueous solubility ([5]; between pH 4-8) was about 1.0 µg/mL (≈ 3.9 µM) and the aqueous solubility ([5]; pH1) was 236 µg/mL (≈ 922 µM). For the same compound, the water solubility ([5]; pH7) was about 1.0 µg/mL (≈ 3.9 µM), the water solubility ([5]; pH of ~3) was 250 µg/mL (≈ 976 µM) and the “in vitro anti-megakaryocytic IC50” value (megakaryocytes) was 7 ng/mL. For the same compound, the IC50 (megakaryocytes; read-out: in vitro anti-megakaryocytic IC50) was 26 nM, the IC50 [6] was 100 nM and the “PF4 levels after treatment” value (PF4) was “reduced the PF4 and VEGF levels to normal”. The “FDA Biopharmaceutics Classification System class” value [7] was “low solubility/high permeability”, the oral bioavailability [8] was “less than 50%” and the peak plasma levels [1] was 16 nM and ~4 ng/mL. The “IC50 inhibition of PDE III” value (PDE III) was 8.2 ng/mL and the IC50 (PDE III) was 32 nM.

For `Cc1ncc2n1-c1ccc(Cl)cc1C(c1ccccc1F)=NC2` [midazolam], the bioavailablity ([9]; given orally) is given as about 30% and the bioavailablity ([9]; intranasal spray) is given as 87%.

For siltuximab: IL-6 antibody, the “upper respiratory infections, share of patients” value [10] is listed as over 20%, the platelet count (ovarian cancer) is listed as “significantly reduced” and the tumour growth (ovarian cancer) is listed as “significantly reduced”.
